Test results published in ChEMBL document CHEMBL1141236, “Surfing the piperazine core of tricyclic farnesyltransferase inhibitors” (Bioorg Med Chem Lett, 2005).

Legend:
[1] = molecular target: T1, Protein farnesyltransferase (Homo sapiens, UniProt P49354+P49356); assay: Inhibitory activity against human farnesyltransferase; format: protein-complex assay
[2] = molecular target: T1, Protein farnesyltransferase; assay: Inhibitory activity in COS cell Ha-Ras processing assay; format: functional, cell-based, Chlorocebus aethiops

SMILES: O=C(NCc1cccnc1)C1CN(C2c3ccc(Cl)cc3CCc3cc(Br)cnc32)CCN1C(=O)CCc1ccccc1 (stereo not drawn)
- IC50 [1]: 30 nM

SMILES: O=C(CC1CN(C2c3ccc(Cl)cc3CCc3cc(Br)cnc32)CCN1C(=O)Cc1ccncc1)NC1CC1 (stereo not drawn)
- IC50 [1]: 70 nM

SMILES: CNC(=O)C1CN(C2c3ccc(Cl)cc3CCc3cc(Br)cnc32)CCN1C(=O)Cc1ccc(Cl)cc1 (stereo not drawn)
- IC50 [1]: 100 nM

SMILES: O=C(NCc1cccnc1)C1CCCN(C2c3ccc(Cl)cc3CCc3cc(Br)cnc32)C1 (stereo not drawn)
- IC50 [2]: 2000 nM
- IC50 [1]: 120 nM

SMILES: O=C(NCC1CC1)C1CN(C2c3ccc(Cl)cc3CCc3cc(Br)cnc32)CCN1C(=O)Cc1ccncc1 (stereo not drawn)
- IC50 [1]: 50 nM

SMILES: O=C(CC1CN(C2c3ccc(Cl)cc3CCc3cc(Br)cnc32)CCN1C(=O)CCc1ccccc1)NCc1cccnc1 (stereo not drawn)
- IC50 [2]: 2000 nM
- IC50 [1]: 960 nM
